Reference: patent US7348421B1, “Methods for production of p-hydroxybenzoate in bacteria” (North Carolina State University, priority 2000, dated 2008)
Where two headings read alike, the source gives them in different places.

Legend:
[1] = tested on: Pseudomonas putida DOT-T1E; assay: Halo-inhibition test with antibiotic disks on minimal medium; type: cell-based; conditions: for size of the inhibition halo: strain T1E, 6-mm disks, µg per disk as, minimal medium; for tolerance/sensitivity to antibiotic: wild-type, Halo-inhibition test
[2] = tested on: Pseudomonas putida DOT-T1E (wild-type); type: cell-based; conditions: for concentration that the strain tolerated: Wild-type, aromatic carboxylic acid gradient, 20 h at 30° C.
P. putida PhoA5 = type: cell-based, Pseudomonas putida; conditions: for tolerance to amino acid: gradient 0 to 50 g/L; for concentration that the strain tolerated: aromatic carboxylic acid gradient, 20 h at 30° C.
PhoA5 pPAT7 = type: cell-based, Pseudomonas putida; conditions: for tolerance to paraben: PhoA5 pPAT7, same gradients; for tolerance to aromatic carboxylic acids: PhoA5(pPAT7), double diffusion plates

Compound: O=C(O)c1cn(C2CC2)c2cc(N3CCNCC3)c(F)cc2c1=O [CIP, ciprofloxacine]
- size of the inhibition halo [1]: 21 mm
- tolerance/sensitivity to antibiotic [1]: sensitive

Compound: CO/N=C(\C(=O)N[C@@H]1C(=O)N2C(C(=O)O)=C(COC(C)=O)CS[C@H]12)c1csc(N)n1 [CTX, cefotaxime]
- size of the inhibition halo [1]: 14 mm
- tolerance/sensitivity to antibiotic [1]: sensitive

Compound: CCOC(=O)c1ccc(O)cc1 [EB, ethylparabene]
- tolerance to paraben ([2]; T1E, gradient up to 2, 1.54, 0.8, 0.3 g/L for methyl-, ethyl-, propyl-, butylparaben): >1.54 g/L
- tolerance to paraben (P. putida PhoA5; same gradients): ~1.4 g/L
- tolerance to paraben (PhoA5 pPAT7): 1.54 g/L
- tolerance to paraben (PhoA5 pPAT7; listed as ethylparaben): as tolerant as the wild-type strain

Compound: C[C@@H](O)[C@H]1C(=O)N2C(C(=O)O)=C(SCCN=CN)C[C@H]12 [IPM, imipenen]
- size of the inhibition halo [1]: 26 mm
- tolerance/sensitivity to antibiotic [1]: sensitive

Compound: CCn1cc(C(=O)O)c(=O)c2ccc(C)nc21 [NA, nalidixic acid]
- size of the inhibition halo [1]: 15 mm
- tolerance/sensitivity to antibiotic [1]: equally sensitive

Compound: CCn1cc(C(=O)O)c(=O)c2cc(F)c(N3CCNCC3)cc21 [NOR, norfloxacine]
- size of the inhibition halo [1]: 20 mm
- tolerance/sensitivity to antibiotic [1]: sensitive

Compound: CCN1CCN(C(=O)N[C@@H](C(=O)N[C@@H]2C(=O)N3[C@@H]2SC(C)(C)[C@@H]3C(=O)O)c2ccccc2)C(=O)C1=O [PIP, piperacillin]
- size of the inhibition halo [1]: 18 mm
- tolerance/sensitivity to antibiotic [1]: equally sensitive

Compound: [H]/N=C(/N)N[C@H]1[C@H](O)[C@@H](O)[C@H](O[C@@H]2O[C@@H](C)[C@](O)(C=O)[C@H]2O[C@@H]2O[C@@H](CO)[C@H](O)[C@@H](O)[C@@H]2NC)[C@@H](N/C(N)=N\[H])[C@@H]1O [SM, streptomycin]
- size of the inhibition halo [1]: 16 mm
- tolerance/sensitivity to antibiotic [1]: equally sensitive

Compound: CN(C)[C@@H]1C(O)=C(C(N)=O)C(=O)[C@@]2(O)C(O)=C3C(=O)c4c(O)cccc4[C@@](C)(O)[C@H]3C[C@@H]12 [TE, tetracycline]
- size of the inhibition halo [1]: 21 mm

Compound: N[C@@H](Cc1ccc(O)cc1)C(=O)O [Tyrosine, L-tyrosine]
- tolerance to amino acid ([2]; T1E, gradient 0 to 50 g/L): about 40 g/L
- tolerance to amino acid (P. putida PhoA5): 25.3 g/L
- tolerance to amino acid (P. putida PhoA5; listed as tyrosine): about 23 g/L

Compound: CC1(C)S[C@@H]2[C@H](NC(=O)[C@H](N)c3ccccc3)C(=O)N2[C@H]1C(=O)O [ampicillin]
- tolerance/sensitivity to antibiotic [1]: tolerant

Compound: CC[C@H]1OC(=O)[C@H](C)[C@@H](O[C@H]2C[C@@](C)(OC)[C@@H](O)[C@H](C)O2)[C@H](C)[C@@H](O[C@@H]2O[C@H](C)C[C@H](N(C)C)[C@H]2O)[C@](C)(O)C[C@@H](C)C(=O)[C@H](C)[C@@H](O)[C@]1(C)O [erythromycin]
- tolerance/sensitivity to antibiotic [1]: tolerant

Compound: Nc1cccc(C(=O)O)c1 [m-aminobenzoate]
- concentration that the strain tolerated [2]: 14.8 g/L
- concentration that the strain tolerated (P. putida PhoA5): 7.5 g/L
- tolerance to aromatic carboxylic acids (PhoA5 pPAT7): as tolerant as the wild-type

Compound: O=C(O)c1cccc(Cl)c1 [m-chlorobenzoate]
- concentration that the strain tolerated [2]: 4.5 g/L
- concentration that the strain tolerated (P. putida PhoA5): 3.0 g/L
- tolerance to aromatic carboxylic acids (PhoA5 pPAT7): as tolerant as the wild-type

Compound: COc1cccc(C(=O)O)c1 [m-methoxybenzoate]
- concentration that the strain tolerated [2]: 12 g/L
- concentration that the strain tolerated (P. putida PhoA5): 7.2 g/L
- tolerance to aromatic carboxylic acids (PhoA5 pPAT7): as tolerant as the wild-type

Compound: Nc1ccccc1C(=O)O [o-aminobenzoate]
- concentration that the strain tolerated [2]: 8.7 g/L
- concentration that the strain tolerated (P. putida PhoA5): 5.0 g/L
- tolerance to aromatic carboxylic acids (PhoA5 pPAT7): as tolerant as the wild-type

Compound: CN[C@H](CC(C)C)C(=O)N[C@H]1C(=O)N[C@@H](CC(N)=O)C(=O)N[C@H]2C(=O)N[C@H]3C(=O)N[C@H](C(=O)N[C@H](C(=O)O)c4cc(O)cc(O)c4-c4cc3ccc4O)[C@H](O)c3ccc(c(Cl)c3)Oc3cc2cc(c3O[C@@H]2O[C@H](CO)[C@@H](O)[C@H](O)[C@H]2O[C@H]2C[C@](C)(N)[C@H](O)[C@H](C)O2)Oc2ccc(cc2Cl)[C@H]1O [vancomycin]
- tolerance/sensitivity to antibiotic [1]: tolerant

Compound: gentamycin [GM]
- size of the inhibition halo [1]: 17 mm
- tolerance/sensitivity to antibiotic [1]: equally sensitive
